Assay results published in ChEMBL document CHEMBL1156211, “Amide-based inhibitors of p38alpha MAP kinase. Part 1: discovery of novel N-pyridyl amide lead molecules” (Bioorg Med Chem Lett, 2010).

molecular target: T1, Mitogen-activated protein kinase 14 (Homo sapiens, UniProt Q16539); assay: Inhibition of p38alpha assessed as inhibition of gamma-32p-ATP incorporation into biotin peptide substrate after 60 mins by scintillation counter
T1 sequence (Q16539 whole entry): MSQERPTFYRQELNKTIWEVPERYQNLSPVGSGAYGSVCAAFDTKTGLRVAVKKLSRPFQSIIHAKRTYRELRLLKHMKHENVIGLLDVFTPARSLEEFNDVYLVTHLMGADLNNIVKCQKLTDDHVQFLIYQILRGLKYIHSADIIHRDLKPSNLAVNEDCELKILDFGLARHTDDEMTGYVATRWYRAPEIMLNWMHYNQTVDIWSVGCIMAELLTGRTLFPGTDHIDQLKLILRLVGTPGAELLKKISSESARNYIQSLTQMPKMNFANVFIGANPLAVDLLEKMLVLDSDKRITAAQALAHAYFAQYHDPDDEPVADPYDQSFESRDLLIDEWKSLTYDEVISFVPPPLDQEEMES

SMILES | IC50
C[C@H](Nc1cc(N(Cc2ccc(F)cc2)S(=O)(=O)c2ccc3ccccc3c2)ccn1)c1ccccc1 | 7540 nM
O=C(c1ccc2ccccc2c1)N(Cc1ccc(F)cc1)c1ccncc1 | 1260 nM
O=C(c1ccc2ccccc2c1)N(Cc1ccc(F)cc1)c1ccnc(NCc2ccccc2)c1 | 1220 nM
CC(C)Nc1cc(N(Cc2ccc(F)cc2)C(=O)c2ccc3ccccc3c2)ccn1 | 671 nM
CC(=O)N(Cc1ccc(F)cc1)c1ccnc(N[C@@H](C)c2ccccc2)c1 | 408 nM
O=C(c1ccc2ccccc2c1)N(Cc1ccc(F)cc1)c1ccnc(NC2CCCCC2)c1 | 1110 nM
CCN(C(=O)c1ccc2ccccc2c1)c1ccnc(N[C@@H](C)c2ccccc2)c1 | 313 nM
C[C@@H](Nc1cc(N(Cc2ccc(F)cc2)C(=O)c2ccc3ccccc3c2)ccn1)c1ccccc1 | 7800 nM
C[C@H](Nc1cc(N(Cc2ccc(F)cc2)C(=O)c2ccccc2)ccn1)c1ccccc1 | 589 nM
C[C@H](Nc1cc(N(Cc2ccc(F)cc2)C(=O)N2CCC3C=CC=CC3C2)ccn1)c1ccccc1 (stereo not given in full) | 1110 nM
C[C@H](Nc1cc(N(Cc2ccc(F)cc2)C(=O)c2ccc3ccccc3c2)ccn1)c1ccccc1 | 345 nM
Nc1cc(N(Cc2ccc(F)cc2)C(=O)c2ccc3ccccc3c2)ccn1 | 5080 nM

molecular target: T1, Mitogen-activated protein kinase 14; assay: Inhibition of p38alpha assessed as inhibition of gamma-32p-ATP incorporation into biotin peptide substrate at 1 uM after 60 mins by scintillation counter

SMILES | inhibition
C[C@H](Nc1cc(CN(C(=O)c2ccc3ccccc3c2)c2ccc(F)cc2)ccn1)c1ccccc1 | 0%
C[C@H](Nc1cc(NCc2ccc(F)cc2)ccn1)c1ccccc1 | 0%
O=C(c1ccc2ccccc2c1)N(Cc1ccncc1)c1ccc(F)cc1 | 0%
